ChEMBL document CHEMBL1201862, “PubChem BioAssay data set” (2004)
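Tested at 5 concentrations; 48 h exposure; 96-well plates; endpoints linearly interpolated, else capped at highest concentration. GI50 is the concentration that inhibits growth by half.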 Activity calls are given as the source filed them. Rule as the data show it: active = GI50 up to about 1.1 µM and inactive = higher.

Assays:
Assay in all cases: NCI anticancer screen, dose series, 48 h
786-0 = test system: 786-0
A498 = test system: A498
A549 = test system: A549
ACHN = test system: ACHN
BT-549 = test system: BT-549
CAKI-1 = test system: CAKI-1
CCRF-CEM = test system: CCRF-CEM
COLO 205 = test system: COLO 205
DU-145 = test system: DU-145
EKVX = test system: EKVX
HCC 2998 = test system: HCC 2998
HCT-116 = test system: HCT-116
HCT-15 = test system: HCT-15
HL-60 = test system: HL-60
HOP-62 = test system: HOP-62
HOP-92 = test system: HOP-92
HT-29 = test system: HT-29
Hs-578T = test system: Hs-578T
IGROV-1 = test system: IGROV-1
K562 = test system: K562
KM12 = test system: KM12
LOX IMVI = test system: LOX IMVI
M14 = test system: M14
MCF7 = test system: MCF7
MDA-MB-231 = test system: MDA-MB-231
MDA-MB-435 = test system: MDA-MB-435
MDA-N = test system: MDA-N
MOLT-4 = test system: MOLT-4
Malme-3M = test system: Malme-3M
NCI-H226 = test system: NCI-H226
NCI-H23 = test system: NCI-H23
NCI-H460 = test system: NCI-H460
NCI-H522 = test system: NCI-H522
NCI/ADR-RES = test system: NCI/ADR-RES
OVCAR-3 = test system: OVCAR-3
OVCAR-4 = test system: OVCAR-4
OVCAR-5 = test system: OVCAR-5
OVCAR-8 = test system: OVCAR-8
PC-3 = test system: PC-3
RPMI-8226 = test system: RPMI-8226
RXF 393 = test system: RXF 393
SF-268 = test system: SF-268
SF-295 = test system: SF-295
SF-539 = test system: SF-539
SK-MEL-28 = test system: SK-MEL-28
SK-MEL-2 = test system: SK-MEL-2
SK-MEL-5 = test system: SK-MEL-5
SK-OV-3 = test system: SK-OV-3
SN12C = test system: SN12C
SNB-19 = test system: SNB-19
SNB-75 = test system: SNB-75
SR = test system: SR
SW-620 = test system: SW-620
T47D = test system: T47D
TK-10 = test system: TK-10
U-251 = test system: U-251
UACC-257 = test system: UACC-257
UACC-62 = test system: UACC-62
UO-31 = test system: UO-31

COc1cc2c3cc1Oc1c(OC)c(OC)cc4c1C(=NCC4)Cc1ccc(cc1)Oc1cc(ccc1O)C[C@H]3N(C)CC2
GI50 (786-0): 10.4 µM (inactive) | GI50 (A498): 22 µM (inactive) | GI50 (A549): 37.5 µM (inactive) | GI50 (ACHN): 23.1 µM (inactive) | GI50 (BT-549): 12.5 µM (inactive) | GI50 (CAKI-1): 20.6 µM (inactive) | GI50 (CCRF-CEM): 30 µM (inactive) | GI50 (COLO 205): 13.5 µM (inactive) | GI50 (DU-145): 25.4 µM (inactive) | GI50 (EKVX): 23.2 µM (inactive) | GI50 (HCC 2998): 13.4 µM (inactive) | GI50 (HCT-116): 12 µM (inactive) | GI50 (HCT-15): 12.2 µM | GI50 (HL-60): 14 µM (inactive) | GI50 (HOP-62): 22.3 µM (inactive) | GI50 (HOP-92): 13.6 µM (inactive) | GI50 (HT-29): 10.8 µM (inactive) | GI50 (Hs-578T): 17.6 µM (inactive) | GI50 (IGROV-1): 25.4 µM (inactive) | GI50 (K562): 12.7 µM (inactive) | GI50 (KM12): 15 µM (inactive) | GI50 (LOX IMVI): 12.6 µM (inactive) | GI50 (M14): 16.3 µM (inactive) | GI50 (MCF7): 25.8 µM (inactive) | GI50 (MDA-MB-231): 12.9 µM (inactive) | GI50 (MDA-MB-435): 18.5 µM (inactive) | GI50 (MDA-N): 16.6 µM (inactive) | GI50 (MOLT-4): 11.9 µM (inactive) | GI50 (Malme-3M): 0.601 µM (active) | GI50 (NCI-H226): 22.6 µM (inactive) | GI50 (NCI-H23): 19.1 µM (inactive) | GI50 (NCI-H460): 15.6 µM (inactive) | GI50 (NCI-H522): 10.7 µM (inactive) | GI50 (NCI/ADR-RES): 13.6 µM (inactive) | GI50 (OVCAR-3): 17.7 µM (inactive) | GI50 (OVCAR-4): 16.1 µM (inactive) | GI50 (OVCAR-5): 45.6 µM (inactive) | GI50 (OVCAR-8): 16 µM (inactive) | GI50 (PC-3): 13.2 µM (inactive) | GI50 (RPMI-8226): 16.3 µM (inactive) | GI50 (RXF 393): 10 µM (inactive) | GI50 (SF-268): 22.6 µM (inactive) | GI50 (SF-295): 19.4 µM (inactive) | GI50 (SF-539): 14.8 µM (inactive) | GI50 (SK-MEL-28): 16.7 µM (inactive) | GI50 (SK-MEL-2): 16.7 µM (inactive) | GI50 (SK-MEL-5): 12.2 µM (inactive) | GI50 (SK-OV-3): 48.6 µM (inactive) | GI50 (SN12C): 22.9 µM (inactive) | GI50 (SNB-19): 23.4 µM (inactive) | GI50 (SNB-75): 14.1 µM (inactive) | GI50 (SR): 5.74 µM (inactive) | GI50 (SW-620): 17.3 µM (inactive) | GI50 (T47D): 21 µM (inactive) | GI50 (TK-10): 20.6 µM (inactive) | GI50 (U-251): 17.4 µM (inactive) | GI50 (UACC-257): 16 µM (inactive) | GI50 (UACC-62): 16.7 µM (inactive)

COC(=O)C(Cc1c[nH]c2ccccc12)NC(=O)c1ccc(-c2ccc(Cl)cc2Cl)o1 (stereo unspecified)
GI50 (786-0): 43.3 µM (inactive) | GI50 (A498): 15.5 µM (inactive) | GI50 (A549): 34.9 µM (inactive) | GI50 (ACHN): 38.4 µM (inactive) | GI50 (BT-549): > 100 µM (inactive) | GI50 (CAKI-1): 42.7 µM (inactive) | GI50 (CCRF-CEM): 20.6 µM (inactive) | GI50 (COLO 205): 43.9 µM (inactive) | GI50 (DU-145): 71.6 µM (inactive) | GI50 (EKVX): 27.4 µM (inactive) | GI50 (HCC 2998): 18.4 µM (inactive) | GI50 (HCT-116): 22.3 µM (inactive) | GI50 (HCT-15): 52.7 µM | GI50 (HL-60): 10.5 µM (inactive) | GI50 (HOP-62): 45.8 µM (inactive) | GI50 (HOP-92): 17.5 µM (inactive) | GI50 (HT-29): 15.7 µM (inactive) | GI50 (Hs-578T): > 100 µM (inactive) | GI50 (IGROV-1): 32.6 µM (inactive) | GI50 (K562): 26 µM (inactive) | GI50 (KM12): 60 µM (inactive) | GI50 (LOX IMVI): 53 µM (inactive) | GI50 (M14): 64 µM (inactive) | GI50 (MCF7): 24.4 µM (inactive) | GI50 (MDA-MB-231): 15.5 µM (inactive) | GI50 (MDA-MB-435): 56 µM (inactive) | GI50 (MDA-N): 48.2 µM (inactive) | GI50 (MOLT-4): 17.6 µM (inactive) | GI50 (Malme-3M): > 100 µM (inactive) | GI50 (NCI-H226): 91.4 µM (inactive) | GI50 (NCI-H23): 73.3 µM (inactive) | GI50 (NCI-H460): 21.6 µM (inactive) | GI50 (NCI-H522): 64.3 µM (inactive) | GI50 (NCI/ADR-RES): 77.8 µM (inactive) | GI50 (OVCAR-3): 36.4 µM (inactive) | GI50 (OVCAR-4): 38.3 µM (inactive) | GI50 (OVCAR-5): > 100 µM (inactive) | GI50 (OVCAR-8): 54.1 µM (inactive) | GI50 (PC-3): 7.96 µM (inactive) | GI50 (RPMI-8226): 16 µM (inactive) | GI50 (RXF 393): 28.5 µM (inactive) | GI50 (SF-268): > 100 µM (inactive) | GI50 (SF-295): 40.5 µM (inactive) | GI50 (SF-539): 21.7 µM (inactive) | GI50 (SK-MEL-28): 65.6 µM (inactive) | GI50 (SK-MEL-2): 34.8 µM (inactive) | GI50 (SK-OV-3): > 100 µM (inactive) | GI50 (SN12C): 26.4 µM (inactive) | GI50 (SNB-19): > 100 µM (inactive) | GI50 (SNB-75): 35.5 µM (inactive) | GI50 (SR): 26.1 µM (inactive) | GI50 (SW-620): 41.1 µM (inactive) | GI50 (T47D): 27.5 µM (inactive) | GI50 (TK-10): 63.5 µM (inactive) | GI50 (U-251): 42.7 µM (inactive) | GI50 (UACC-257): 16.9 µM (inactive) | GI50 (UACC-62): 43.3 µM (inactive) | GI50 (UO-31): 45.4 µM (inactive)
